Measurements reported in patent US20260297542A1, “HERBICIDE RESISTANT PLANTS” (SYNGENTA CROP PROTECTION AG, priority 2023, published 2026).
Numbering of substitutions follows the chain as printed.

What was measured:
Experiment in all cases: E. coli hemG growth inhibition by herbicide, AtPPO1 variant
Type in all cases: cell-based
Details in all cases: read-out: percentage growth inhibition
AtPPO1 G510N = biological target: T1, AtPPO1 G510N (Arabidopsis thaliana, UniProt P55826, G510N)
T1 construct: expressed in transfected cells; host or cells: E. coli BL21(DE3) hemG, pET24a plasmid
T1 sequence (P55826 35-537 G510N): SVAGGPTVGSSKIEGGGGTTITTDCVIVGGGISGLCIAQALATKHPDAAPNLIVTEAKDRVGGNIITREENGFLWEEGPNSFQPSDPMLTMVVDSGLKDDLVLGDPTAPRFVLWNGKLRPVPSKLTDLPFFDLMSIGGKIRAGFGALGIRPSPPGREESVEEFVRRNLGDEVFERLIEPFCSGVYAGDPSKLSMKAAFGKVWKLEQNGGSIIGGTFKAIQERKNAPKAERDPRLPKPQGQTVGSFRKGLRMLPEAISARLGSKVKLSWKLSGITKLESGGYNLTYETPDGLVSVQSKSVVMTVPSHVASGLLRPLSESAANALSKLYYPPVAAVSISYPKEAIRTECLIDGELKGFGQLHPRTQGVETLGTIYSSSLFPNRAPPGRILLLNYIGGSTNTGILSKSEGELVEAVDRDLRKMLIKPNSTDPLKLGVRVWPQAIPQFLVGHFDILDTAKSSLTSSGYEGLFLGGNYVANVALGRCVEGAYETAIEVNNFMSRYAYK
Summary of the method: (§1)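 Variant plasmids were transformed into hemG-null BL21(DE3) and precultured 24 h with hematin. Washed cells were diluted 1:100 into Terrific broth containing 0.1 mM IPTG and herbicide (6.25 ppm 0 or E; 0.78 ppm B) or DMSO. After 24 h at 37° C, OD600 gave percent inhibition.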

AtPPO1 Q272T = biological target: T2, AtPPO1 Q272T (Arabidopsis thaliana, UniProt P55826, Q272T)
T2 construct: expressed in transfected cells; host or cells: E. coli BL21(DE3) hemG (hemG replaced by CmR), pET24a plasmid
T2 sequence (P55826 35-537 Q272T): T1 sequence (P55826 35-537 G510N) with Q238T, N476G
Summary of the method: as §1

AtPPO1 V127L = biological target: T3, AtPPO1 V127L (Arabidopsis thaliana, UniProt P55826, V127L)
T3 construct: expressed in transfected cells; host or cells: E. coli BL21(DE3) hemG (hemG replaced by CmR), pET24a plasmid
T3 sequence (P55826 35-537 V127L): T1 sequence (P55826 35-537 G510N) with V93L, N476G
Summary of the method: as §1

AtPPO1 Y361P = biological target: T4, AtPPO1 Y361P (Arabidopsis thaliana, UniProt P55826, Y361P)
T4 construct: expressed in transfected cells; host or cells: E. coli BL21(DE3) hemG (pET24a, T7 promoter)
T4 sequence (P55826 35-537 Y361P): T1 sequence (P55826 35-537 G510N) with Y327P, N476G
Summary of the method: as §1

SMILES	inhibition at 6.25 ppm (AtPPO1 G510N) [%]	inhibition at 6.25 ppm (AtPPO1 Q272T) [%]	inhibition at 6.25 ppm (AtPPO1 V127L) [%]	inhibition at 6.25 ppm (AtPPO1 Y361P) [%]	inhibition at 0.78 ppm (AtPPO1 G510N) [%]	inhibition at 0.78 ppm (AtPPO1 Q272T) [%]	inhibition at 0.78 ppm (AtPPO1 V127L) [%]	inhibition at 0.78 ppm (AtPPO1 Y361P) [%]
CC(C)N(C)S(=O)(=O)NC(=O)c1cc(-n2c(=O)cc(C(F)(F)F)n(C)c2=O)c(F)cc1Cl [Herbicide E, saflufenacil]	70	64	65	38	–	–	–	–
C#CCN1C(=O)C(F)(F)Oc2cc(F)c(-n3c(=O)n(C)c(=S)n(C)c3=O)cc21 [Herbicide B, trifludimoxazin]	–	–	–	–	24	28	31	28
CCOC(=O)[C@]1(C)CC(c2cc(-n3c(=O)n(C)c(=S)n(C)c3=O)c(F)cc2Cl)=NO1 [Herbicide D, ethyl (5S)-3-[2-chloro-5-(3,5-dimethyl-2,6-dioxo-4-thioxo-1,3,5-triazinan-1-yl)-4-fluoro-phenyl]-5-methyl-4H-isoxazole-5-carboxylate]	31	23	29	36	–	–	–	–
